Results from ChEMBL document CHEMBL4387711, “Discovery of niclosamide and its O-alkylamino-tethered derivatives as potent antibacterial agents against carbapenemase-producing and/or colistin resistant Enterobacteriaceae isolates” (2019).
In brackets after ≈: the same amount, converted by molar mass. Activity calls are given as the source filed them. The calls are words filed in the database; no cut-off is given here.

Assays:
Klebsiella aerogenes [1] = assay: Antibacterial activity against colistin-resistant Enterobacter aerogenes 53 assessed as inhibition of growth at 50 uM after 18 hrs; assay type: functional, organism-based
Escherichia coli [2] = assay: Antibacterial activity against colistin-susceptible NDM1/KPC-producing Escherichia coli by broth microdilution method; assay type: functional
Enterobacter cloacae [3] = assay: Antibacterial activity against colistin-resistant Enterobacter cloacae 272 assessed as inhibition of growth at 50 uM after 18 hrs; assay type: functional, organism-based
Klebsiella pneumoniae [4] = assay: Antibacterial activity against colistin-susceptible NDM-1/carbapenemase-producing Klebsiella pneumoniae assessed as inhibition of growth at 50 uM after 18 hrs; assay type: functional, organism-based
Enterobacter cloacae [5] = assay: Antibacterial activity against colistin-resistant Enterobacter cloacae 32 assessed as inhibition of growth at 50 uM after 18 hrs; assay type: functional, organism-based
Klebsiella aerogenes [6] = assay: Antibacterial activity against colistin-resistant Enterobacter aerogenes 3 assessed as inhibition of growth at 50 uM after 18 hrs; assay type: functional, organism-based
Klebsiella pneumoniae [7] = assay: Antibacterial activity against colistin-resistant VIM1/DHAI/carbapenemase-producing Klebsiella pneumoniae 21 assessed as inhibition of growth at 50 uM after 18 hrs; assay type: functional, organism-based
Klebsiella pneumoniae [8] = assay: Antibacterial activity against colistin-susceptible OXA-48/CTX-M-15/carbapenemase-producing Klebsiella pneumoniae 28 assessed as inhibition of growth at 50 uM after 18 hrs; assay type: functional, organism-based
Klebsiella pneumoniae [9] = assay: Antibacterial activity against colistin-susceptible NDM-1/carbapenemase-producing Klebsiella pneumoniae by broth microdilution method; assay type: functional
Klebsiella pneumoniae [10] = assay: Antibacterial activity against colistin-susceptible VIM1/carbapenemase-producing Klebsiella pneumoniae 07 assessed as inhibition of growth at 50 uM after 18 hrs; assay type: functional, organism-based
Klebsiella pneumoniae [11] = assay: Antibacterial activity against colistin-susceptible OXA-48/CTX-M-15/carbapenemase-producing Klebsiella pneumoniae 28 by broth microdilution method; assay type: functional
Klebsiella pneumoniae [12] = assay: Antibacterial activity against Klebsiella pneumoniae CECT-997 assessed as inhibition of growth at 50 uM after 18 hrs; assay type: functional, organism-based
Enterobacter cloacae [13] = assay: Antibacterial activity against colistin-resistant Enterobacter cloacae 263 assessed as inhibition of growth at 50 uM after 18 hrs; assay type: functional, organism-based
Enterobacter cloacae [14] = assay: Antibacterial activity against colistin-resistant Enterobacter cloacae 280 by broth microdilution method; assay type: functional
Enterobacter cloacae [15] = assay: Antibacterial activity against colistin-resistant Enterobacter cloacae 142 assessed as inhibition of growth at 50 uM after 18 hrs; assay type: functional, organism-based
Enterobacter cloacae [16] = assay: Antibacterial activity against colistin-resistant Enterobacter cloacae 190 assessed as inhibition of growth at 50 uM after 18 hrs; assay type: functional, organism-based
Enterobacter cloacae [17] = assay: Antibacterial activity against colistin-resistant Enterobacter cloacae 297 by broth microdilution method; assay type: functional
Enterobacter cloacae [18] = assay: Antibacterial activity against colistin-resistant Enterobacter cloacae 280 assessed as inhibition of growth at 50 uM after 18 hrs; assay type: functional, organism-based
Klebsiella pneumoniae [19] = assay: Antibacterial activity against carbapenemase/Klebsiella pneumoniae CECT-997 by broth microdilution method; assay type: functional
Enterobacter cloacae [20] = assay: Antibacterial activity against colistin-resistant Enterobacter cloacae 297 assessed as inhibition of growth at 50 uM after 18 hrs; assay type: functional, organism-based
Klebsiella pneumoniae [21] = assay: Antibacterial activity against colistin-resistant OXA-48/CTX-M-15/carbapenemase-producing Klebsiella pneumoniae 29 assessed as inhibition of growth at 50 uM after 18 hrs; assay type: functional, organism-based
Escherichia coli [22] = assay: Antibacterial activity against colistin-susceptible NDM1/KPC-producing Escherichia coli assessed as inhibition of growth at 50 uM after 18 hrs; assay type: functional, organism-based
Enterobacter cloacae [23] = assay: Bactericidal activity against colistin-resistant Enterobacter cloacae 280 assessed as reduction in bacterial count at MIC measured after 2 hrs in presence of colistin by time kill assay; assay type: functional, organism-based
Enterobacter cloacae [24] = assay: Synergistic bactericidal activity against colistin-resistant Enterobacter cloacae 280 assessed as reduction in bacterial count at MIC measured after 8 hrs in presence of colistin by time kill assay; assay type: functional, organism-based
Enterobacter cloacae [25] = assay: Synergistic antibacterial activity against colistin-resistant Enterobacter cloacae 297 in presence of colistin by checkerboard assay; assay type: functional
Enterobacter cloacae [26] = assay: Synergistic antibacterial activity against colistin-resistant Enterobacter cloacae 280 in presence of colistin by checkerboard assay; assay type: functional
Klebsiella pneumoniae [27] = assay: Bactericidal activity against OXA-48/CTX-M-15/carbapenemase-producing Klebsiella pneumoniae 28 assessed as reduction in bacterial count at MIC measured from 2 hrs in presence of colistin by time kill assay; assay type: functional, organism-based
Klebsiella pneumoniae [28] = assay: Synergistic bactericidal activity against OXA-48/CTX-M-15/carbapenemase-producing Klebsiella pneumoniae 28 assessed as reduction in bacterial count at MIC measured after 2 hrs in presence of colistin by time kill assay; assay type: functional, organism-based
Escherichia coli [29] = assay: Synergistic antibacterial activity against colistin-susceptible NDM1/KPC-producing Escherichia coli in presence of colistin by checkerboard assay; assay type: functional
Enterobacter cloacae [30] = assay: Antibacterial activity against colistin-resistant Enterobacter cloacae 263 by broth microdilution method; assay type: functional, organism-based
Klebsiella aerogenes [31] = assay: Antibacterial activity against colistin-resistant Enterobacter aerogenes 53 by broth microdilution method; assay type: functional, organism-based
Klebsiella aerogenes [32] = assay: Antibacterial activity against colistin-resistant Enterobacter aerogenes 3 by broth microdilution method; assay type: functional, organism-based
Escherichia coli [33] = assay: Bactericidal activity against colistin-susceptible NDM-1/KPC-producing Escherichia coli assessed as reduction in bacterial count at MIC measured after 2 hrs by time kill assay; assay type: functional, organism-based
Enterobacter cloacae [34] = assay: Antibacterial activity against colistin-resistant Enterobacter cloacae 190 by broth microdilution method; assay type: functional, organism-based
Enterobacter cloacae [35] = assay: Antibacterial activity against colistin-resistant Enterobacter cloacae 272 by broth microdilution method; assay type: functional, organism-based
Klebsiella pneumoniae [36] = assay: Antibacterial activity against colistin-resistant OXA-48/CTX-M-15/carbapenemase-producing Klebsiella pneumoniae 29 by broth microdilution method; assay type: functional, organism-based
Enterobacter cloacae [37] = assay: Antibacterial activity against colistin-resistant Enterobacter cloacae 32 by broth microdilution method; assay type: functional, organism-based
Enterobacter cloacae [38] = assay: Antibacterial activity against colistin-resistant Enterobacter cloacae 142 by broth microdilution method; assay type: functional, organism-based
Klebsiella pneumoniae [39] = assay: Antibacterial activity against colistin-susceptible VIM1/carbapenemase-producing Klebsiella pneumoniae 07 by broth microdilution method; assay type: functional, organism-based
Klebsiella pneumoniae [40] = assay: Antibacterial activity against colistin-resistant VIM1/DHAI/carbapenemase-producing Klebsiella pneumoniae 21 by broth microdilution method; assay type: functional, organism-based

| Molecule | growth inhibition (GI) (Klebsiella aerogenes [1]) | MIC (Escherichia coli [2]) | growth inhibition (GI) (Enterobacter cloacae [3]) | growth inhibition (GI) (Klebsiella pneumoniae [4]) | growth inhibition (GI) (Enterobacter cloacae [5]) | growth inhibition (GI) (Klebsiella aerogenes [6]) | growth inhibition (GI) (Klebsiella pneumoniae [7]) | growth inhibition (GI) (Klebsiella pneumoniae [8]) | MIC (Klebsiella pneumoniae [9]) | growth inhibition (GI) (Klebsiella pneumoniae [10]) | MIC (Klebsiella pneumoniae [11]) | growth inhibition (GI) (Klebsiella pneumoniae [12]) | growth inhibition (GI) (Enterobacter cloacae [13]) | MIC (Enterobacter cloacae [14]) | growth inhibition (GI) (Enterobacter cloacae [15]) | growth inhibition (GI) (Enterobacter cloacae [16]) | MIC (Enterobacter cloacae [17]) | growth inhibition (GI) (Enterobacter cloacae [18]) | MIC (Klebsiella pneumoniae [19]) | growth inhibition (GI) (Enterobacter cloacae [20]) | further results |
| --- | --- | --- | --- | --- | --- | --- | --- | --- | --- | --- | --- | --- | --- | --- | --- | --- | --- | --- | --- | --- | --- |
| NCCOCCOc1ccc(Cl)cc1C(=O)Nc1ccc([N+](=O)[O-])cc1Cl | inactive | > 15 µg/mL | inactive | inactive | inactive | inactive | inactive | inactive | inactive | inactive | inactive | inactive | inactive | inactive | inactive | inactive | > 15 µg/mL | inactive | inactive | Active | growth inhibition (GI) (Klebsiella pneumoniae [21]): inactive; growth inhibition (GI) (Escherichia coli [22]): Active |
| O=C(Nc1ccc([N+](=O)[O-])cc1Cl)c1cc(Cl)ccc1O [NICLOSAMIDE] | inactive | inactive | inactive | inactive | inactive | inactive | inactive | inactive | inactive | inactive | inactive | inactive | inactive | > 15 µg/mL | inactive | inactive | > 15 µg/mL | Active | inactive | Active | Activity (Enterobacter cloacae [23]): Active; Activity (Enterobacter cloacae [24]): Active; fractional inhibitory concentration index (FICI) (Enterobacter cloacae [25]): 0.25; fractional inhibitory concentration index (FICI) (Enterobacter cloacae [26]): 0.25; growth inhibition (GI) (Klebsiella pneumoniae [21]): inactive; growth inhibition (GI) (Escherichia coli [22]): inactive |
| NCCCCCOc1ccc(Cl)cc1C(=O)Nc1ccc([N+](=O)[O-])cc1Cl | inactive | > 15 µg/mL | inactive | Active | inactive | inactive | inactive | Active | > 15 µg/mL | inactive | 15 µg/mL (≈ 36.4 µM) | inactive | inactive | inactive | inactive | inactive | inactive | inactive | inactive | inactive | Activity (Klebsiella pneumoniae [27]): Active; Activity (Klebsiella pneumoniae [28]): Active; growth inhibition (GI) (Klebsiella pneumoniae [21]): inactive; growth inhibition (GI) (Escherichia coli [22]): Active; fractional inhibitory concentration index (FICI) (Escherichia coli [29]): 0.38 |
| CC[C@H](N)COc1ccc(Cl)cc1C(=O)Nc1ccc([N+](=O)[O-])cc1Cl | inactive | > 15 µg/mL | inactive | inactive | inactive | inactive | inactive | inactive | inactive | inactive | inactive | inactive | inactive | inactive | inactive | inactive | inactive | inactive | inactive | inactive | growth inhibition (GI) (Klebsiella pneumoniae [21]): inactive; growth inhibition (GI) (Escherichia coli [22]): Active; fractional inhibitory concentration index (FICI) (Escherichia coli [29]): 0.5 |
| COLISTIN | – | 0.5 µg/mL | – | – | – | – | – | – | 0.5 µg/mL | – | 0.5 µg/mL | – | – | 32 µg/mL | – | – | 3 µg/mL | – | – | – | MIC (Enterobacter cloacae [30]): 8 µg/mL; MIC (Klebsiella aerogenes [31]): 32 µg/mL; MIC (Klebsiella aerogenes [32]): 32 µg/mL; Activity (Escherichia coli [33]): Active; MIC (Enterobacter cloacae [34]): 32 µg/mL; MIC (Enterobacter cloacae [35]): 16 µg/mL; MIC (Klebsiella pneumoniae [36]): 32 µg/mL; MIC (Enterobacter cloacae [37]): > 256 µg/mL; MIC (Enterobacter cloacae [38]): 64 µg/mL; MIC (Klebsiella pneumoniae [39]): 0.5 µg/mL; MIC (Klebsiella pneumoniae [40]): 64 µg/mL |
